Test results: US20180325889A1, “IMMUNOREGULATORY AGENTS” (FLEXUS BIOSCIENCES, INC., priority 2014, published 2018)

What follows are molecules tested against T1, human IDO1/HEK293 cells (Homo sapiens, UniProt P14902) (assay: HEK Human IDO-1 cell-based IDO inhibition assay (kynurenine production)). Details: HEK293 cells stably expressing human IDO1, 20 hours incubation, absorbance at 490 nm; read-out: HEK Human IDO-1 Bio Activity (IDO IC50).
T1 construct: expressed in transfected cells
Method: They were cultured in medium (DMEM with 10% FBS) containing 1 mg/ml G418 for two weeks.
The human IDO1/HEK293 cells were seeded at 10,000 cells per 50 μL per well with RPMI/phenol red free media contains 10% FBS in a 384-well black wall clear bottom tissue culture plate (Matrix Technologies LLC) 100 nL of certain concentration of compound was then added to each well using ECHO liquid handling systems. The cells were incubated for 20 hours in 37° C. incubator with 5% CO2.
The compound treatments were stopped by adding trichloroacetic acid (Sigma-Aldrich) to a final concentration at 0.2%. The cell plate was further incubated at 50° C. for 30 minute. The equal volume supernatant (20 μL) and 0.2% (w/v) Ehrlich reagent (4-dimethylaminobenzaldehyde, Sigma-Aldrich) in glacial acetic acid were mixed in a new clear bottom 384-well plate. This plate was then incubated at room temperature for 30 minute. The absorbance at 490 nm was measured on Envision plate reader.

T1 sequence (P14902 whole entry): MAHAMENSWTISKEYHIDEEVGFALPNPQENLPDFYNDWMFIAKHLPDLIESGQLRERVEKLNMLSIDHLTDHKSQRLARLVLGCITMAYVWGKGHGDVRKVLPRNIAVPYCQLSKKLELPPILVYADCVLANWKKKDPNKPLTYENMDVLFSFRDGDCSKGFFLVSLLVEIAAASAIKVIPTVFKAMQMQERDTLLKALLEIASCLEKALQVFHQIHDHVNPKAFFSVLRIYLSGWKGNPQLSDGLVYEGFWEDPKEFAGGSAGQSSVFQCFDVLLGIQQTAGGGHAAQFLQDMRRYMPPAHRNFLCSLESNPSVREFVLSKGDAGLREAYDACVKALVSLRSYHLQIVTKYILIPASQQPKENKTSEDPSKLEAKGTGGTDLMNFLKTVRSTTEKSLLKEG

IC50 [nM] | Molecule
< 2000 | CC1(CNC(=O)c2ccc(-c3ccccc3)cc2)CCN(c2ccnc(C(F)(F)F)c2)CC1 [Example 228, N-((4-Methyl-1-(2-(trifluoromethyl)pyridin-4-yl)piperidin-4-yl)methyl)-[1,1′-biphenyl]-4-carboxamide]
< 50 | Cc1ccccc1C(=O)N[C@H](C)[C@H]1CC[C@@H](c2ccnc3ccc(F)cc32)CC1 [Example 49, N-((R)-1-((1s,4S)-4-(6-fluoroquinolin-4-yl)cyclohexyl)ethyl)-2-methylbenzamide]
< 50 | COc1ccc(-c2ccc(C(=O)N[C@H](C)[C@H]3CC[C@@H](c4ccnc5ccc(F)cc54)CC3)cc2)cn1 [Example 245, N-((R)-1-((1s,4S)-4-(6-fluoroquinolin-4-yl)cyclohexyl)ethyl)-4-(6-methoxypyridin-3-yl)benzamide]
< 50 | CCC(NC(=O)c1ccc(C#N)cc1)C1CCC(c2ccnc3ccc(F)cc23)CC1 (single isomer, unassigned) [Example 165b, 4-Cyano-N-(1-(4-(6-fluoroquinolin-4-yl)cyclohexyl)propyl)benzamide]
< 250 | O=C(Nc1ccc(Cl)cc1)[C@H]1CC[C@H](c2ccnc3ccc(F)cc32)CC1 [Example 75, (trans)-N-(4-Chlorophenyl)-4-(6-fluoroquinolin-4-yl)cyclohexanecarboxamide]
< 50 | Cc1cnc(-c2ccc(C(=O)N[C@H](C)[C@H]3CC[C@@H](c4ccnc5ccc(F)cc54)CC3)cc2)s1 [Example 252, N-((R)-1-((1s,4S)-4-(6-fluoroquinolin-4-yl)cyclohexyl)ethyl)-4-(5-methylthiazol-2-yl)benzamide]
< 50 | CC(NC(=O)c1ccc(Cl)cc1)C1CCC(c2ccnc(C(F)(F)F)c2)CC1 (single isomer, unassigned) [Example 213, 4-chloro-N-(1-(4-(2-(trifluoromethyl)pyridin-4-yl)cyclohexyl)ethyl)benzamide]
< 250 | Fc1ccc2nccc([C@H]3CC[C@@H](NCc4ccccc4)CC3)c2c1 [Example 131, cis-N-Benzyl-4-(6-fluoroquinolin-4-yl)cyclohexanamine]
< 2000 | CCC(NC(=O)c1ccc(Cl)cc1)C1CCC(c2cccc(C(F)F)n2)CC1 (single isomer, unassigned) [Example 231d, 4-chloro-N-(1-(4-(6-(difluoromethyl)pyridin-2-yl)cyclohexyl)propyl)benzamide]
< 2000 | O=C(Nc1ccc(F)cc1)NC1CCN(c2ccnc3ccc(F)cc23)CC1 [Example 93, 1-(4-Fluorophenyl)-3-(1-(6-fluoroquinolin-4-yl)piperidin-4-yl)urea]
< 50 | C[C@@H](NC(=O)c1ccccc1F)[C@H]1CC[C@@H](c2ccnc3ccc(F)cc32)CC1 [Example 54, 2-fluoro-N-((R)-1-((1s,4S)-4-(6-fluoroquinolin-4-yl)cyclohexyl)ethyl)benzamide]
< 250 | CC(NC(=O)c1ccc(Cl)cc1)C1CCC(c2ccc(C(F)(F)F)nc2)CC1 (centres unmarked) [Example 216, 4-chloro-N-(1-(4-(6-(trifluoromcthyr)pyridin-3-yl)cyclohexyl)ethyl)benzamide]
< 2000 | C[C@@H](NS(=O)(=O)c1ccc(Cl)cc1)[C@H]1CC[C@@H](c2ccnc3ccc(F)cc32)CC1 [Example 43, 4-chloro-N-((R)-1-((1s,4S)-4-(6-fluoroquinolin-4-yl)cyclohcxyl)ethyl)benzenesulfonamide]
< 250 | O=C(Nc1ccc(F)cc1F)N[C@H]1CC[C@H](c2ccnc3ccc(F)cc32)CC1 [Example 122, 1-(2,4-difluorophenyl)-3-(trans-4-(6-fluoroquinolin-4-yl)cyclohexyl)urea]

Further lines, the molecule ahead of its results:

Molecule | IC50 [nM]
CCC(NC(=O)c1ccc(Cl)cc1)C1CCC(c2cccc(C(F)F)n2)CC1 (single isomer, unassigned) [Example 231c, 4-chloro-N-(1-(4-(6-(difluoromethyl)pyridin-2-yl)cyclohexyl)propyl)benzamide] | < 2000
CC1(CNC(=O)c2ccc(Cl)cc2)CCN(c2ccnc(C(F)(F)F)c2)CC1 [Example 227, 4-Chloro-N-((4-methyl-1-(2-(trifluoromethyl)pyridin-4-yl)piperidin-4-yl)methyl)benzamide] | < 2000
O=C(Nc1ccc(Cl)cc1F)N[C@H]1CC[C@H](c2ccnc3ccc(F)cc32)CC1 [Example 120, 1-(4-chloro-2-fluorophenyl)-3-(trans-4-(6-fluoroquinolin-4-yl)cyclohexyl)urea] | < 50
O=C(NCC1CCN(c2ccnc3ccc(F)cc23)CC1)c1ccc(Cl)c(Cl)c1 [Example 87, 3,4-Dichloro-N-((1-(6-fluoroquinolin-4-yl)piperidin-4-yl)methyl)benzamide] | < 250
O=C(O)Cc1ccc(CN[C@H]2CC[C@H](c3ccnc4ccc(F)cc43)CC2)cc1 [Example 139, 2-(4-(((trans-4-(6-Fluoroquinolin-4-yl)cyclohexyl)amino)methyl)phenyl)acetic acid] | < 2000
O=C(NCC1CCN(c2ccnc3ccc(F)cc23)CC1)c1ccc(F)cc1 [Example 89] | < 250
CCC(NC(=O)c1ccc(Cl)cc1)C1CCC(c2cccc(C(F)F)n2)CC1 (single isomer, unassigned) [Example 231e, 4-chloro-N-(1-(4-(6-(difluoromethyl)pyridin-2-yl)cyclohexyl)propyl)benzamide] | < 50
C[C@@H](NC(=O)c1ccc(-c2cnccn2)cc1)[C@H]1CC[C@@H](c2ccnc3ccc(F)cc32)CC1 [Example 233, N-((R)-1-((1s,4S)-4-(6-fluoroquinolin-4-yl)cyclohexyl)ethyl)-4-(pyrazin-2-yl)benzamide] | < 50
Cc1ncc(-c2ccc(C(=O)N[C@H](C)[C@H]3CC[C@@H](c4ccnc5ccc(F)cc54)CC3)cc2)s1 [Example 238, N-((R)-1-((1s,4S)-4-(6-fluoroquinolin-4-yl)cyclohexyl)ethyl)-4-(2-methylthiazol-5-yl)benzamide] | < 50
C[C@@H](NC(=O)c1ccc(-c2ncnn2C)cc1)[C@H]1CC[C@@H](c2ccnc3ccc(F)cc32)CC1 [Example 251, N-((R)-1-((1s,4S)-4-(6-fluoroquinolin-4-yl)cyclohexyl)ethyl)-4-(1-methyl-1H-1,2,4-triazol-5-yl)benzamide] | < 250
C[C@@H](NC(=O)c1ccccc1Cl)[C@H]1CC[C@@H](c2ccnc3ccc(F)cc32)CC1 [Example 56, 2-chloro-N-((R)-1-((1s,4S)-4-(6-fluoroquinolin-4-yl)cyclohexyl)ethyl)benzamide] | < 50
(R)-1-(cis-4-(6-fluoroquinolin-4-yl)cyclohexyl)-N-methylethanamine [Example 194] | < 50
C[C@@H](NC(=O)c1ccc(-c2cncnc2)cc1)[C@H]1CC[C@@H](c2ccnc3ccc(F)cc32)CC1 [Example 234, N-((R)-1-((1s,4S)-4-(6-fluoroquinolin-4-yl)cyclohexyl)ethyl)-4-(pyrimidin-5-yl)benzamide] | < 50
CCC(NC(=O)c1ccc(OC)nc1)[C@H]1CC[C@@H](c2ccnc3ccc(C(F)(F)F)cc32)CC1 (some centres unmarked) [Example 256, 6-methoxy-N-(1-((1s, 4S)-4-(6-(trifluoromethyl)quinolin-4-yl)cyclohexyl)propyl)nicotinamide] | < 50
C[C@@H](NC(=O)c1ccc(-c2cscn2)cc1)[C@H]1CC[C@@H](c2ccnc3ccc(F)cc32)CC1 [Example 243, N-((R)-1-((1s,4S)-4-(6-fluoroquinolin-4-yl)cyclohcxyl)cthyl)-4-(thiazol-4-yl)benzamide] | < 50
